Assay results published in patent US20240181000A1, “LGG-DERIVED PEPTIDES AND METHODS OF USE THEREOF” (Ohio State Innovation Foundation, priority 2021, published 2024).
Read-outs that look alike come from different tables or passages of the source. No end group written: not given here.

Legend:
APEC [1] = conditions: in vivo
Description: FIGS. 58A-58B show the APEC load after treatment 8 days dpi with LGG and 50 mg/mL of peptides in drinking water.

multiple APEC serotypes = format: cell-based, E. coli
Description: Anti-APEC spectrum determination: Peptides (P1, P2, and P3) were tested against multiple APEC serotypes/strains to determine their spectrum of activity. Peptides were added at their MICs and the growth inhibitory activity of the peptides was determined as described above.

APEC O78 = format: cell-based, E. coli
Description: Anti-APEC activity determination: The anti-APEC activity of peptides was determined in LB broth following CLSI guidelines. Briefly, overnight grown APEC O78 was adjusted to 5×10^5 CFU/mL concentration in fresh LB media. One-hundred microliters of APEC suspension was aliquoted into the wells of the 96-well plate. Peptides were added to the wells at 6 mM and 12 mM concentrations and incubated at 37° C. in TECAN Sunrise™ absorbance microplate reader with kinetic absorbance measurement set at every 30 mins for 12 h. Sterile media and DMSO (solvent) were used as controls. The growth inhibitory activity of the peptides against APEC was calculated using the formula: (OD600 DMSO treated well−OD600 peptide treated well)/OD600 DMSO treated well×100%.
The minimum inhibitory concentration (MIC) was determined for selected peptides (P1, P2, P3, and P4) using similar assay as above. Peptides were added to the wells of the 96-well plate at 6 mM, 9 mM, 12 mM, 15 mM, and 18 mM concentrations. The peptide concentration at which there is no visible APEC growth (no OD increase) was determined as MIC. Two independent experiments were conducted.
Arginine and lysine substituted peptide analogues: The non-essential amino acid residues identified in each peptide were substituted with arginine/lysine to test whether these substitutions enhance the anti-APEC activity of peptides. The MICs of arginine and lysine substituted peptide analogues ([…] (SEQ ID NO:37), […] (SEQ ID NO:38), […] (SEQ ID NO:39), KDENK (SEQ ID NO:41), PDEKK (SEQ ID NO:42), KDEKK (SEQ ID NO:43), KHTAPK (SEQ ID NO:45), VKTAPK (SEQ ID NO:46), VHTKPK (SEQ ID NO:47), and KKTKPK (SEQ ID NO:48)) were determined as above and compared with original peptides.

Salmonella Saintpaul = assay: MIC against serovars; format: cell-based
Description: (§1) Peptide protection against varied Salmonella serovars: To further test the spectrum of the peptides anti-Salmonella capabilities, eight additional Salmonella serovars commonly implicated in foodborne illness (S. Anatum, S. Albany, S. Brenderup, S. Javiana, S. Heidelberg, S. Muenchen, S. Newport, S. Saintpaul) were analyzed. P1, P2, and P4 (selected based on dose response assay results) were added to the assay at their MICs to determine their effect on different serovars. Inhibition was determined using criteria from above.

Salmonella Brenderup = assay: MIC against serovars; format: cell-based
Description: as §1

APEC [2] = format: in vivo, chickens; conditions: in vivo
Excerpt: FIGS. 57A-57D show the APEC load of chickens (at 7 dpi [days post infection]) treated with either peptides P-1 or P-2.

Salmonella Javiana = format: cell-based
Description: as §1

## NPSRQERR [Peptide P1]
APEC [1]
  Bodyweight: no significant effect
Multiple APEC serotypes
  Growth inhibition against APEC serotypes: 95.1-100%
APEC O78
  MIC50: 14.7 mM
Salmonella Saintpaul
  MIC: 18 mM
Salmonella Brenderup
  MIC: 18 mM
APEC [2]
  Bodyweight: no significant effect
Salmonella Javiana
  MIC: 18 mM
